Measured values published in patent publication US7351728B2, “Oxazolyl-aryloxyacetic acid derivatives and their use as PPAR agonists” (Eli Lilly and Company, priority 2003, dated 2008).

biological target: T1, huPPARγ (Homo sapiens, UniProt P37231); test: Cotransfection assay in CV-1 cells, AOX PPRE luciferase reporter; format: cell-based; set-up: expressed in transfected cells; host or cells: CV-1 cells; conditions: cotransfection efficacy relative to PPARγ agonist reference molecule, read-out: huPPARγ CTF Eff. (%)
T1 sequence (P37231 1-505): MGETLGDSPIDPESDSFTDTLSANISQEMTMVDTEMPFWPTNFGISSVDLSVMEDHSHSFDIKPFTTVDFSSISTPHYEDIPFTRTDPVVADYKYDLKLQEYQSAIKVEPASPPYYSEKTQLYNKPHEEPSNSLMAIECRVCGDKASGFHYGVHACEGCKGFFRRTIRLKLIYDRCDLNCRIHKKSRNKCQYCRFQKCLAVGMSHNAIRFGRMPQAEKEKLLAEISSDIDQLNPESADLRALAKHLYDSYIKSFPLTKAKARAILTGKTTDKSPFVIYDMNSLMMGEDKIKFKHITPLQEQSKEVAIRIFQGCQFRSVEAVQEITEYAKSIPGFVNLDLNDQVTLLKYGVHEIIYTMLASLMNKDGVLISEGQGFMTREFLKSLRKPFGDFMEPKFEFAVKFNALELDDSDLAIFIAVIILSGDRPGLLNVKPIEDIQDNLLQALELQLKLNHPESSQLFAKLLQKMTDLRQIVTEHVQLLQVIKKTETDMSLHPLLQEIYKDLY
T1 sequence (P19793 1-462 partner): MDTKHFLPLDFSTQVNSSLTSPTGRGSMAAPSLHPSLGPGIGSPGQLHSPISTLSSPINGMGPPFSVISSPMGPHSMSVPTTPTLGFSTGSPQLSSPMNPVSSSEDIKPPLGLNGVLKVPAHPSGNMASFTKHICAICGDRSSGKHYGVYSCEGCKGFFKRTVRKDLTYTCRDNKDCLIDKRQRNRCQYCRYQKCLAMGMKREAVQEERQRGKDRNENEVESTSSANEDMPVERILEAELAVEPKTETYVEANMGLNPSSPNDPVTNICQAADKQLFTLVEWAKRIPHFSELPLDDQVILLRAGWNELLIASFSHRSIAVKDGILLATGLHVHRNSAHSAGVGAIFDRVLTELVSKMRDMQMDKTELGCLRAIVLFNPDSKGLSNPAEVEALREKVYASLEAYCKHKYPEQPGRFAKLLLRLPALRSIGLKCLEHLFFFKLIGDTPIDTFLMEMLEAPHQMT
Procedure: DNA-dependent binding (ABCD binding) was carried out using SPA technology with PPAR receptors. Tritium-labeled PPARα and PPARγ agonists were used as radioligands for generating displacement curves and IC50 values with compounds of the invention. Cotransfection assays were carried out in CV-1 cells. The reporter plasmid contained an acylCoA oxidase (AOX) PPRE and TK promoter upstream of the luciferase reporter cDNA. Appropriate PPARs and RXRα were constitutively expressed using plasmids containing the CMV promoter. […] In order to eliminate such interference, a GAL4 chimeric system was used in which the DNA binding domain of the transfected PPAR was replaced by that of GAL4, and the GAL4 response element was utilized in place of the AOX PPRE. Cotransfection efficacy was determined relative to PPARα agonist and PPARγ agonist reference molecules. Efficacies were determined by computer fit to a concentration-response curve, or in some cases at a single high concentration of agonist (10 μM). For binding or cotransfection studies with receptors other than PPARs, similar assays were carried out using appropriate ligands, receptors, reporter constructs, etc., for that particular receptor.
These studies were carried out to evaluate the ability of compounds of the invention to bind to and/or activate various nuclear transcription factors, particularly huPPARα (“hu” indicates “human”) and huPPARγ. These studies provide in vitro data concerning efficacy and selectivity of compounds of the invention. Furthermore, binding and cotransfection data for compounds of the invention were compared with corresponding data for marketed compounds that act on either huPPARα or huPPARγ.
Binding and cotransfection data for representative compounds of the invention are compared with corresponding data for reference compounds in Table II.

SMILES	Emax
Cc1oc(-c2ccccc2)nc1CCOc1ccc(OC(C)(C)C(=O)O)cc1 [Example 1, 2-Methyl-2-{4-[2-(5-methyl-2-phenyloxazol-4-yl)ethoxy]phenoxy}propionic acid]	69%
Cc1oc(-c2cccc(Br)c2)nc1CCOc1ccc(OC(C)(C)C(=O)O)cc1 [Example 9A, 2-(4-{2-[2-(3-Bromophenyl)-5-methyloxazol-4-yl]ethoxy}phenoxy)-2-methylpropionic acid]	60%
CCc1cccc(-c2nc(CCOc3ccc(OC(C)(C)C(=O)O)cc3)c(C)o2)c1 [Example 12, 2-(4-{2-[2-(3-Ethylphenyl)-5-methyloxazol-4-yl]ethoxy}phenoxy)-2-methylpropionic acid]	66%
Cc1oc(-c2cccc(CCc3ccccc3)c2)nc1CCOc1ccc(OC(C)(C)C(=O)O)cc1 [Example 12A, 2-Methyl-2-(4-{2-[5-methyl-2-(3-phenethylphenyl)oxazol-4-yl]ethoxy}phenoxy)-propionic acid]	170%
CCc1ccc(-c2nc(CCOc3ccc(OC(C)(C)C(=O)O)cc3)c(C)o2)cc1 [Example 13, 2-(4-{2-[2-(4-Ethylphenyl)-5-methyloxazol-4-yl]ethoxy}phenoxy)-2-methylpropionic acid]	109%
Cc1oc(-c2ccc(OC3CCCCC3)cc2)nc1CCOc1ccc(OC(C)(C)C(=O)O)cc1 [Example 21, 2-(4-{2-[2-(4-Cyclohexyloxy-phenyl)-5-methyl-oxazol-4-yl]-ethoxy}-phenoxy)-2-methyl-propionic acid]	85%
Cc1cc(OCCc2nc(-c3ccccc3)oc2C)ccc1OC(C)(C)C(=O)O [Example 24, 2-Methyl-2-{2-methyl-4-[2-(5-methyl-2-phenyloxazol-4-yl)ethoxy]phenoxy}propionic acid]	94%
CCCc1cc(OCCc2nc(-c3ccccc3)oc2C)ccc1OCC(=O)O [Example 26, {4-[2-(5-methyl-2-phenyl-oxazol-4-yl)ethoxy]-2-propylphenoxy}acetic acid]	52%
CCCc1cc(OCCc2nc(-c3ccccc3)oc2C)ccc1OC(C)(C)C(=O)O [Example 26A, 2-Methyl-2-{4-[2-(5-methyl-2-phenyloxazol-4-yl)ethoxy]-2-propylphenoxy}propionic acid]	74%
CCCc1cc(OC(C)(C)C(=O)O)ccc1OCCc1nc(-c2ccccc2)oc1C [Example 27A, 2-Methyl-2-{4-[2-(5-methyl-2-phenyloxazol-4-yl)ethoxy]-3-propylphenoxy}propionic acid]	63%
CCc1cc(OCCc2nc(-c3ccccc3)oc2C)ccc1OC(C)(C)C(=O)O [Example 30A, 2-{2-Ethyl-4-[2-(5-methyl-2-phenyloxazol-4-yl)ethoxy]phenoxy}2-methylpropionic acid]	92%
Cc1oc(-c2ccccc2)nc1CCOc1ccc(OC(C)(C)C(=O)O)c(CC(C)C)c1 [Example 30C, 2-{2-Isobutyl-4-[2-(5-methyl-2-phenyloxazol-4-yl)ethoxy]phenoxy}-2-methylpropionic acid]	63%

Second part, the compound after the results:

Emax	SMILES
50%	Cc1oc(-c2ccccc2)nc1CCOc1ccc(OC(C)(C)C(=O)O)c(CCc2ccccc2)c1 [Example 30J, 2-Methyl-2-{4-[2-(5-methyl-2-phenyloxazol-4-yl)ethoxy]-2-phenethylphenoxy}propionic acid]
51%	CCCCc1cc(OC(C)(C)C(=O)O)ccc1OCCc1nc(-c2ccccc2)oc1C [Example 31F, 2-{3-Butyl-4-[2-(5-methyl-2-phenyloxazol-4-yl)ethoxy]phenoxy}-2-methylpropionic acid]
80%	Cc1oc(-c2ccccc2)nc1CCOc1ccc(OC(C)(C)C(=O)O)c(Cc2ccccc2)c1 [Example 32, 2-{2-Benzyl-4-[2-(5-methyl-2-phenyloxazol-4-yl)ethoxy]phenoxy}-2-methylpropionic acid]
60%	Cc1oc(-c2ccccc2)nc1CCOc1ccc(OC(C)(C)C(=O)O)c2ccccc12 [Example 37, 2-Methyl-2-{4-[2-(5-methyl-2-phenyl-oxazol-4-yl)-ethoxy]-naphthalen-1-yloxy}-propionic acid]
65%	Cc1oc(-c2ccccc2)nc1CCOc1ccc(OC(C)(C)C(=O)O)c2c1CCCC2 [Example 38, 2-Methyl-2-{4-[2-(5-methyl-2-phenyl-oxazol-4-yl)-ethoxy]-5,6,7,8-tetrahydro-naphthalen-1-yloxy}-propionic acid]
